Data set [1] in a line: Therapeutical effect on olive oil-induced triglyceride hyperlipidemia models. In kind it is in vivo. To be noted: once a day for one week, SD rats, 2 h after olive oil. The procedure:
Test of Therapeutical Effect on Olive Oil-Induced Triglyceride Hyperlipidemia Models
To conduct this test, 6-week-old SD rats (purchased from Charles River Japan) were used.
According to the body weight of the test rats when they were 5 weeks old, the test rats were divided into test groups and a control group with 6 rats per group.
A predetermined amount of each compound prepared in the Examples was measured and placed in an agate mortar. While 5% aqueous gum arabic solution was gradually introduced to the mortar, the compound was uniformly ground and suspended. Test samples were prepared by further adding 5% aqueous gum arabic solution gradually. Subsequently, these test samples were subjected to ultrasonic washing for 10 minutes to homogenize. Test samples were prepared as and when necessary.
The rats of the test groups were orally administered with the compounds of the invention such that rats received the compounds in an amount of 10, 30, or 100 mg/kg. The compounds of the invention were formulated as 5% gum arabic suspensions as described above.
The rats of the control group were orally administered with 5% aqueous gum arabic solution (not containing the compounds of the invention) in an amount of 5 ml/kg body weight. Administration was conducted once a day continuously for one week at a specific time of day after the rats reached 6 weeks of age. This test was performed under non-fasting conditions (rats had free access to feed and water), and the rats were fasted after the final administration of the compounds or 5% aqueous gum arabic solution.
Two hours after the final administration, olive oil was orally administered to the rats from both groups in an amount of 3 ml/kg body weight.
Two hours after the olive oil administration, blood was collected from the abdominal aorta of the rats of the respective groups using a heparinized syringe. The plasma was centrifugally separated from the blood at a temperature of 4° C., and the triglyceride level of the plasma was measured. A Hitachi 7170 automatic analyzer was used as the measuring instrument. Using the values measured from the test groups and control group, the decrease (%) in plasma triglyceride level was calculated according to the following equation: Decrease (%) in plasma triglyceride concentration=(1−E/C)×100 wherein E represents the average plasma triglyceride level in each test group; and C represents the average plasma triglyceride level in the control group.

Data set [2] is described as follows: Anti-obesity test using AKR mice (high-fat feed). Type of data set: in vivo. To be noted: 1 mg per gram of feed in high-fat feed, 7 weeks, AKR/J mice, relative to high-fat feed control group. The text has this: Anti-Obesity Test Using AKR Mice
Furthermore, this test enables the evaluation of therapeutic effects on diabetes. That is, it is reported that insulinemia can be observed in AKR/J mice when they are fed with a high-fat diet (see Am. J. Physiol. 266 (5 Pt 2), May 1994: R1423-8). It is thus known that insulinemia is strongly associated with diabetes (see, for example, J. Cardiovasc. Nurs. 16 (2), January 2002: 17-23). Therefore, this test can verify the therapeutic effects of the compounds of the present invention, used as test compounds, on diabetes.
For rat feed, powdered CRF-1 (Charles River Formula 1, manufactured by Oriental Yeast, Co., Ltd.) was used as normal feed. As high-fat feed, that prepared by blending CRF-1 with 18% safflower oil (Oriental Yeast, Co., Ltd.) was used.
Test substances were blended with the high-fat feed in an amount of 1 mg per gram of CRF-1.
AKR/J mice (from CLEA Japan, Inc.) were purchased at the age of 4 weeks. They were roughly divided into 2 groups according to body weight when the mice reached 5 weeks old. During this period, all mice were given the normal feed.
Subsequently, the mice of one group (8 mice) continued to be fed with the normal feed (normal feed group). The mice of the other group (8×(the number of the test substances+1) mice) were given the high-fat feed (high-fat feed group).
The body weight of the mice of each group was measured daily. […] These mice were further reared for 7 weeks (“test substances+high-fat feed groups”; n=8 per type of test substance). Specifically, the administration of the test substances was continued for 7 weeks. A group of mice to which high-fat feed containing no test substance was continued to be given was used as a control (high-fat feed control group; n=8).
Four hours after the feeding on the last day of the 7-week test (the last day of the test), the body weight of the mice of the “test substances+high fat feed groups” was measured. Blood was collected from the abdominal aorta of the mice using a heparinized syringe, and the leptin and insulin levels in the plasma were measured using an Elisa kit (produced by Morinaga). The mice of the other groups (normal feed group and high-fat feed control group) were reared till the last day of the test as above, and 4 hours after the last feeding on the last day of the test the measurements were performed according to the same procedures.
The average values of the test results (body weight, leptin level, and insulin level) of the test substances+high-fat feed groups to which the compounds prepared in Examples (Examples 10 and 58) were used as test substances (hereinbelow referred to as the “Example Compound 10-mixed high-fat feed group” and “Example Compound 58-mixed high-fat feed group”) were compared with the respective average values (standard values) of the results obtained from the mice of the high-fat control group to obtain the variations (differences). The differences were expressed as percentages in relation to the standard values. The values thus calculated were referred to as “weight change (%)”, “leptin level change (%)”, and “insulin level change (%)”. In the table below, the symbols “−” (minus) indicate that the differences are negative relative to the standard values.

Data set [3] can be described thus: Anti-obesity test using Zucker fatty rats. In kind it is in vivo. To be noted: 100 mg/kg oral, once a day over 4 weeks, relative to control group. The source says:
Anti-Obesity Test Using Zucker Fatty Rats
Zucker fatty rats are obese rats discovered by Zucker et al., in 1961 as mutants among 13 M rats, which are a hybrid between 13C and M rats. These rats (fa/fa) start to appear distinctly obese from normal broods around the age of 3 weeks. As they age, the weight difference between the fatty rats and normal rats increases. Zucker fatty rats are currently kept by a variety of organizations as simple obesity models, and are readily obtainable.
This test was performed using this rat model to evaluate the anti-obesity action of the compounds of the invention. The preparation method of test samples and the test procedures are described below:
The test samples were prepared in the same manner as in Test Example 2.
Zucker fatty rats and lean rats (both from Charles River Japan) were purchased at the age of 5 weeks. They were divided into groups (10 rats per group) according to body weight when they reached 6 weeks old. After acclimatization, the administration of test samples was initiated when the rats reached 8 weeks old. Test samples were orally administered using an oral gavage so that the compounds of the invention contained in the test samples were given in an amount of 100 mg/kg body weight (test sample dosage: 5 ml/kg body weight). The test samples were administered once a day over 4 weeks at a specific time of day.
As a control, a group of rats were administered with the same amount of 5% aqueous gum arabic solution (5 ml/kg body weight) instead of the test samples.
The rats of all groups were weighed on the last day of administration. The average body weight of the rats of each test group was compared with the average body weight (standard weight) of the rats of the control group to obtain the weight variations (differences). The weight differences were expressed as percentages in relation to the standard weight. The values thus calculated are referred to as “weight change %”. When a weight difference is negative relative to the standard weight, weight change % is shown with “−” (minus).
During the test period, the rats of the respective groups had free access to rat feed (“CRF-1”, manufactured by Oriental Yeast, Co., Ltd.) and water (tap water).

`COc1cc(-c2cn3ccccc3n2)ccc1OCc1ccc(Br)cc1F` [Example 58] returned a melting point of 111 to 113 °C. Moreover, the “Decrease in plasma triglyceride level (%)” value (from here on “Decrease … (%)”) in data set [1] (10 mg/kg oral) was found to be 31%. Also, the “Decrease … (%)” value in data set [1] (30 mg/kg oral) came to 66%. In data set [1] (100 mg/kg oral), the “Decrease … (%)” value was 79%. Also, the “Weight Change (%)” value in data set [2] was −10%. Also, in data set [2] (plasma), the “Insulin level change (%)” value was −12% and the “Leptin level change (%)” value is given as −55%. The “Weight Change (%)” value in data set [3] is given as −19%.

Source of the values: patent US8895599B2, “Lipoprotein lipase-activating compositions comprising benzene derivates” (Otsuka Pharmaceutical Factory, Inc., priority 2008, dated 2014).
